For 47 compounds, IC50 results are on record in US20230135635A1, “INHIBITORS OF ULK1/2 AND METHODS OF USING SAME” (SALK INSTITUTE FOR BIOLOGICAL STUDIES, priority 2020, published 2023).

pIC50: −log10 of the molar value.

Broadly, the pIC50 is the negative decadic logarithm of the IC50, by convention in mol/L.

The target in the first experiment is T1, recombinant human ULK1 protein (1-649) (Homo sapiens, UniProt O75385).
T1 construct: recombinant human ULK1 protein (1-649, SignalChem #U01-11G); purchased SignalChem U01-11G
T1 sequence (O75385 1-649): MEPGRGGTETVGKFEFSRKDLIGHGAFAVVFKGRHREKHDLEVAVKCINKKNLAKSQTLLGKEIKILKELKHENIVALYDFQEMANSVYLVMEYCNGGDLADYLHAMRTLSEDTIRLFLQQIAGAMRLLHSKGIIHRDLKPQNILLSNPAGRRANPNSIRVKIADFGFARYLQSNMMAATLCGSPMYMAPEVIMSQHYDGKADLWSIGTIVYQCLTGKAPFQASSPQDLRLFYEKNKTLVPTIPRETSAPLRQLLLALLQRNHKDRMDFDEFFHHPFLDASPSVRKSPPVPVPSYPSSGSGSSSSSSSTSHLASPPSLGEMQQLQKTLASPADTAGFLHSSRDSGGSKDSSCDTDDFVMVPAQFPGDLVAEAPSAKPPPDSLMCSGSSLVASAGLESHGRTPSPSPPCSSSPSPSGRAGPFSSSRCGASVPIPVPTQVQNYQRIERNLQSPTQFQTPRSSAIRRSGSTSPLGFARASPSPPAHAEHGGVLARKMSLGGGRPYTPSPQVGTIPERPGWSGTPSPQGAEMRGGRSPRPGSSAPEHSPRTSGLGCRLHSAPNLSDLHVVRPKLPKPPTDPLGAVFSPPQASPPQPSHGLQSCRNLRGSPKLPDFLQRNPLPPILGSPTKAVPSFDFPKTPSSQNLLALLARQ
As to the kind of experiment: ULK1 inhibition assay (ADP Glo). It is filed as biochemical. To be noted: Table 1; 25 uM ATP, MBP substrate, one hour. The gist of the method: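 Recombinant ULK1 (2 ug/mL) phosphorylated myelin basic protein (80 ug/mL) at 25 uM ATP; ADP formed was detected by ADP-Glo after 1 h. Compounds ran in triplicate, 16-dose 3-fold serial dilution from 30 uM, to give IC50.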
Background: In ADP-Glo the light output rises with the ADP produced.
Turning to `CNC(=O)c1ccccc1Nc1nc(Nc2ccc3c(c2)CCN(CC(C)O)C3)ncc1Br` (centres unmarked) [Compound A138, 2-{5-Bromo-2-[2-(2-hydroxy-propyl)-1,2,3,4-tetrahydro-isoquinolin-6-ylamino]-pyrimidin-4-ylamino}-N-methyl-benzamide], the pIC50 was under 8.00.

Consider `FC(F)(F)c1cnc(Nc2ccc3c(c2)CN(Cc2ccncc2)CC3)nc1NC1CC1` [Compound A82], for which the pIC50 is over 9.00.

In the case of `FC(F)(F)c1cnc(Nc2ccc3c(c2)CN(C2CNC2)CC3)nc1NC1CC1` [Compound A110], the pIC50 was over 9.00.

`CNC(=O)c1ccccc1Nc1nc(Nc2ccc3c(c2)CN(C)CC3)ncc1Br` [Compound A167, 2-[5-Bromo-2-(2-methyl-1,2,3,4-tetrahydro-isoquinolin-7-ylamino)-pyrimidin-4-ylamino]-N-methyl-benzamide]: the pIC50 was under 8.00.

Consider `CNC(=O)c1ccccc1Nc1nc(Nc2ccc3c(c2)CN(CCC(=O)O)CC3)ncc1Br` [Compound A164, 3-{7-[5-Bromo-4-(2-methylcarbamoyl-phenylamino)-pyrimidin-2-ylamino]-3,4-dihydro-1H-isoquinolin-2-yl}-propionic acid], for which the pIC50 is under 8.00.

Consider `OCCN1CCc2ccc(Nc3ncc(C(F)(F)F)c(NC4CC4)n3)cc2C1` [Compound A106], for which the pIC50 is 8.00 to 9.00.

As to `FC(F)(F)c1cnc(Nc2ccc3c(c2)CCN(Cc2ccoc2)C3)nc1NC1CC1` [Compound A92], the pIC50 is 8.00 to 9.00.

As for `FC(F)(F)c1cnc(Nc2ccc3c(c2)CCN(CC2OCCO2)C3)nc1NC1CC1` [Compound A17], the pIC50 was over 9.00.

Regarding `FC(F)(F)c1cnc(Nc2ccc3c(c2)CN(Cc2ccccc2)CC3)nc1NC1CC1` [Compound A95], the pIC50 was under 8.00.

Turning to `FC(F)(F)c1cnc(Nc2ccc3c(c2)CN(CC2CCNC2)CC3)nc1NC1CC1` (centres unmarked) [Compound A107], the pIC50 is under 8.00.

On to `NCC(=O)Nc1cnc(Nc2ccc3c(c2)CCNC3)nc1NC1CC1` [Compound A26], for which the pIC50 is under 8.00.

On to `CNC(=O)c1ccccc1Nc1nc(Nc2ccc3c(c2)CCN(C(=O)CCC(=O)O)C3)ncc1Br` [Compound A134, 4-{6-[5-Bromo-4-(2-methylcarbamoyl-phenylamino)-pyrimidin-2-ylamino]-3,4-dihydro-1H-isoquinolin-2-yl}-4-oxo-butyric acid], for which the pIC50 was under 8.00.

As for `CNC(=O)c1ccccc1Nc1nc(Nc2ccc3c(c2)CN(Cc2ccc(OC)cc2)CC3)ncc1Br` [Compound A158, 2-{5-Bromo-2-[2-(4-methoxy-benzyl)-1,2,3,4-tetrahydro-isoquinolin-7-ylamino]-pyrimidin-4-ylamino}-N-methyl-benzamide], the pIC50 was under 8.00.

With `CNC(=O)c1ccccc1Nc1nc(Nc2ccc3c(c2)CCN(S(N)(=O)=O)C3)ncc1Br` [Compound A140, 2-[5-Bromo-2-(2-sulfamoyl-1,2,3,4-tetrahydro-isoquinolin-6-ylamino)-pyrimidin-4-ylamino]-N-methyl-benzamide], the pIC50 was under 8.00.

For `O=C(OCCO)c1cnc(Nc2ccc3c(c2)CCNC3)nc1NC1CC1` [Compound A33], the pIC50 is under 8.00.

For `CNC(=O)c1ccccc1Oc1nc(Nc2ccc3c(c2)CCN(CCOC)C3)ncc1Br` [Compound A125, 2-((5-Bromo-2-((2-(2-methoxyethyl)-1,2,3,4-tetrahydroisoquinolin-6-yl)amino)pyrimidin-4-yl)oxy)-N-methylbenzamide], the pIC50 is under 8.00.

Take `Oc1ccc(CN2CCc3cc(Nc4ncc(C(F)(F)F)c(NC5CC5)n4)ccc3C2)cc1` [Compound A77]: the pIC50 was over 9.00.

For the compound `NS(=O)(=O)N1CCc2cc(Nc3ncc(C(F)(F)F)c(NC4CC4)n3)ccc2C1` [Compound A25], the negative-log IC50 (pIC50) was over 9.00.

Turning to `OCCN1CCc2cc(Nc3ncc(C(F)(F)F)c(NC4CC4)n3)ccc2C1` [Compound A53], the pIC50 is over 9.00.

With `FC(F)(F)c1cnc(Nc2ccc3c(c2)CCN(Cc2ccncc2)C3)nc1NC1CC1` [Compound A3], the pIC50 is over 9.00.

For `CNC(=O)c1ccccc1Nc1nc(Nc2ccc3c(c2)CCN(CCC(N)=O)C3)ncc1Br` [Compound A142, 2-{5-Bromo-2-[2-(2-carbamoyl-ethyl)-1,2,3,4-tetrahydro-isoquinolin-6-ylamino]-pyrimidin-4-ylamino}-N-methyl-benzamide], the negative logarithm of the IC50 (pIC50) was under 8.00.

For the compound `O=C(CN1CCc2ccc(Nc3ncc(C(F)(F)F)c(NC4CC4)n3)cc2C1)N1CCOCC1` [Compound A100], the pIC50 was over 9.00.

As for `FC(F)(F)c1cnc(Nc2ccc3c(c2)CN(Cc2ccncn2)CC3)nc1NC1CC1` [Compound A109], the pIC50 was over 9.00.

For `CNC(=O)c1ccccc1Nc1nc(Nc2ccc3c(c2)CN(Cc2cccnc2)CC3)ncc1Br` [Compound A159, 2-[5-Bromo-2-(2-pyridin-3-ylmethyl-1,2,3,4-tetrahydro-isoquinolin-7-ylamino)-pyrimidin-4-ylamino]-N-methyl-benzamide], the pIC50 was under 8.00.

As to `CNC(=O)c1ccccc1Nc1nc(Nc2ccc3c(c2)CN(CCOC)CC3)ncc1Br` [Compound A149, 2-{5-Bromo-2-[2-(2-methoxy-ethyl)-1,2,3,4-tetrahydro-isoquinolin-7-ylamino]-pyrimidin-4-ylamino}-N-methyl-benzamide], the negative logarithm of the IC50 (pIC50) was under 8.00.

The same experiment, now with this note: Table 2.
For the compound `COC(=O)c1ccccc1Oc1nc(Nc2ccc(OC)cc2)ncc1Br` [Compound B19], the negative logarithm of the IC50 (pIC50) is under 6.00.

For `COC(=O)c1ccccc1Oc1nc(Nc2ccc3c(c2)OCO3)ncc1Br` [Compound B20], the pIC50 was under 6.00.

Take `COc1cc(Nc2ncc(Br)c(Oc3ccccc3C(=O)N3CCC3)n2)cc(OC)c1OC` [Compound B50]: the pIC50 was under 6.00.

Take `COC(=O)c1ccccc1Oc1nc(Nc2ccc(N3CCOCC3)cc2)ncc1Br` [Compound B12]: the pIC50 was under 6.00.

On to `CNC(=O)c1ccccc1Oc1nc(Nc2ccc3c(c2)OCO3)ncc1C(F)(F)F` [Compound B52, 2-((2-(Benzo[d][1,3]dioxol-5-ylamino)-5-(trifluoromethyl)pyrimidin-4-yl)oxy)-N-methyl benzamide], for which the pIC50 is under 6.00.

For the compound `COC(=O)c1ccccc1Oc1nc(Nc2ccc(N3CCN(C)CC3)cc2)ncc1Br` [Compound B11], the pIC50 was over 7.00.

As to `COC(=O)c1ccccc1Oc1nc(Nc2cc(C)c(C)c(C)c2)ncc1Br` [Compound B16], the pIC50 was under 6.00.

For `COC(=O)c1ccccc1Oc1nc(Nc2cccc(OC)c2)ncc1Br` [Compound B23], the pIC50 is under 6.00.

As to `COC(=O)c1ccccc1Oc1nc(Nc2ccc(N3CCNCC3)cc2)ncc1Br` [Compound B47], the pIC50 is under 6.00.

The same experiment, now with this note: Table 3.
On to `COc1ccc(Nc2ncc(Br)c(Nc3ccccc3CO)n2)cc1` [Compound C5], for which the pIC50 was 7.00 to 8.30.

Consider `COc1cc(Nc2ncc(Br)c(Nc3ccccc3CN3CCN(S(C)(=O)=O)CC3)n2)cc(OC)c1OC` [Compound C22], for which the pIC50 is under 7.00.

As to `COc1cc(Nc2ncc(Br)c(Nc3ccccc3CN(C)C)n2)cc(OC)c1OC` [Compound C18], the pIC50 was 7.00 to 8.30.

As to `CC(=O)NCc1ccc(Nc2ncc(C(F)(F)F)c(NC3CC3)n2)cc1` [Compound D5], the pIC50 was 7.00 to 8.30.

On to `COc1cc(Nc2ncc(Br)c(Nc3ccccc3CNC3CC3)n2)cc(OC)c1OC` [Compound C24], for which the pIC50 was under 7.00.

With `CNC(=O)c1ccc(Nc2nc(Nc3cc(OC)c(OC)c(OC)c3)ncc2Br)cc1` [Compound E27, 4-((5-Bromo-2-((3,4,5-trimethoxyphenyl)amino)pyrimidin-4-yl)amino)-N-methylbenzamide], the pIC50 is under 7.00.

`CNC(=O)c1ccccc1Nc1nc(Nc2cccc(OC(F)F)c2)ncc1Br` [Compound E20, 2-((5-Bromo-2-((3-(difluoromethoxy)phenyl)amino)pyrimidin-4-yl)amino)-N-methylbenzamide]: the pIC50 was under 7.00.

On to `CN(C)Cc1ccc(Nc2ncc(C(F)(F)F)c(NC3CC3)n2)cc1` [Compound D4], for which the pIC50 was over 8.30.

For `CNC(=O)c1ccccc1Nc1cc(C#N)nc(Nc2cc(OC)c(OC)c(OC)c2)n1` [Compound E8, 2-((6-Cyano-2-((3,4,5-trimethoxyphenyl)amino)pyrimidin-4-yl)amino)-N-methylbenzamide], the pIC50 was under 7.00.

For the compound `COCc1ccccc1Nc1nc(Nc2cc(OC)c(OC)c(OC)c2)ncc1Br` [Compound C2], the pIC50 is over 8.30.

For the compound `COc1cc(Nc2ncc(Br)c(Nc3ccccc3COCC(=O)N(C)C)n2)cc(OC)c1OC` [Compound C19], the pIC50 is under 7.00.

Consider `NCCCNc1ncc(Br)c(Nc2ccccc2CO)n1` [Compound C15], for which the pIC50 was under 7.00.

For `CNC(=O)c1ccccc1Nc1nc(Nc2ccc(OC)cc2)ncc1Br` [Compound E15, 2-((5-Bromo-2-((4-methoxyphenyl)amino)pyrimidin-4-yl)amino)-N-methylbenzamide], the pIC50 was under 7.00.
